From publication PMC11747885, “Potent inhibitors of the human RNA ligase Rlig1 highlights its role in RNA integrity maintenance under oxidative cellular stress” (Chemical Science, 2025)
No end group written: not given here.

Biological target: T1, Rlig1-AMP (Homo sapiens, UniProt Q8N999)
T1 construct: made in house; host or cells: E. coli BL21 (DE3), pET15b-Rlig1
Test: FRET-based high-throughput screening of inhibitors for Rlig1-AMP
Type: biochemical
Conditions: for Raw data [w Enyzm]: with enzyme; for Raw data [w/o Enzym]: without enzyme

[1] = HTS hits, difference of raw data w/o and w enzyme
[2] = HTS hits, normalized value (npi)
[3] = HTS hits, normalised value of 1-D Distance
[4] = HTS hits, MedChemExpress library
[5] = HTS hits, difference of raw data without and with enzyme
[6] = sheet HTS hits, MedChemExpress library
[7] = sheet HTS hits, difference of raw data w/o and w enzyme

T1 sequence (Q8N999 whole entry): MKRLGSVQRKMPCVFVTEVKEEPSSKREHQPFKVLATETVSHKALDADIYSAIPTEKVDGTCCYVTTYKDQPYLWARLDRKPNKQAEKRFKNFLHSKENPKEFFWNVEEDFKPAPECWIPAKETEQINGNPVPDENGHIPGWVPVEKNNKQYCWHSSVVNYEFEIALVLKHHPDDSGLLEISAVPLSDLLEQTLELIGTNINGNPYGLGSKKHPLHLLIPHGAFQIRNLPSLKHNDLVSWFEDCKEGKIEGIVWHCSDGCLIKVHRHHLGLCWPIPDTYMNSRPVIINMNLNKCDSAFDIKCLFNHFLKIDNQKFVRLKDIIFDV

1-D Distance [1] | Raw data [w Enyzm] (HTS hits) | Raw data [w/o Enzym] (HTS hits) | 1-D Distance.npi [3] | Compound | also measured
496 | 3841 | 4337 |  | C[n+]1ccc(/C=C/c2ccc3c(c2)c2cc(/C=C/c4cc[n+](C)cc4)ccc2n3CCOCCOCCOCC[N+]2(C)CCCCC2)cc1.[I-].[I-].[I-] [BMVC-8C3O] | 1-D Distance.npi [2]: 99.5333
99 | 2490 | 2391 | 102.921 | CN(C)c1ccc(Nc2c3ccc(NC(=O)CCN4CCCC4)cc3nc3cc(NC(=O)CCN4CCCC4)ccc23)cc1.Cl.Cl.Cl [Braco-19 (trihydrochloride)] | 
580 | 5329 | 5909 | 94.3021 | Vitamin B12 | 
45 | 4942 | 4897 |  | CCCCCCCCCCCCCCCC(=O)NCCCC[C@@H](N)C(=O)NCCCNCCCCNCCCN.Cl.Cl.Cl.Cl [AMXT-1501 tetrahydrochloride] | 1-D Distance.npi [2]: 103.958
 | 1246 |  |  | COc1cccc2c1C(=O)c1c(O)c3c(c(O)c1C2=O)C[C@@](O)(C(=O)CO)C[C@@H]3O[C@H]1C[C@H](N)[C@@H](O)[C@H](C)O1.Cl [Epirubicin (hydrochloride)] | 1-D Distance.npi [4]: 99.0682; 1-D Distance [5]: 316
 |  |  |  | C#CCOCCOCCOCCOCC#C [Bis-propargyl-PEG3] | 1-D Distance.npi [6]: 78.8376; 1-D Distance [7]: 1567; Raw data [w Enyzm] (sheet HTS hits): 9208; Raw data [w/o Enzym] (sheet HTS hits): 10775
 |  |  |  | CC1=NN(c2ccc(C)c(C)c2)C(=O)/C1=N\Nc1cccc(-c2cccc(C(=O)O)c2)c1O.NCCO.NCCO [Eltrombopag (Olamine)] | 1-D Distance.npi [6]: 92.4928; 1-D Distance [7]: 680; Raw data [w Enyzm] (sheet HTS hits): 3683; Raw data [w/o Enzym] (sheet HTS hits): 4363
 | 4061 | 5199 |  | NCCNc1ccc(NCCN)c2c1C(=O)c1ccncc1C2=O.O=C(O)/C=C\C(=O)O.O=C(O)/C=C\C(=O)O [Pixantrone (dimaleate)] | 1-D Distance.npi [4]: 84.4919; 1-D Distance [5]: 1138
1863 | 7893 |  |  | CC1CS(=O)(=O)CCN1/N=C/c1ccc([N+](=O)[O-])o1 (stereo not drawn) [Nifurtimox] | 
 | 2370 | 3763 |  | CC(/C=C/C=C(\C)C(=O)O[C@@H]1O[C@H](CO[C@@H]2O[C@H](CO)[C@@H](O)[C@H](O)[C@H]2O)[C@@H](O)[C@H](O)[C@H]1O)=C\C=C\C=C(C)\C=C\C=C(/C)C(=O)O[C@@H]1O[C@H](CO[C@@H]2O[C@H](CO)[C@@H](O)[C@H](O)[C@H]2O)[C@@H](O)[C@H](O)[C@H]1O [Crocin] | 1-D Distance [5]: 1393
1236 | 1492 | 2728 | 82.5479 | Verteporfin | 
2067 | 8807 | 10874 | 70.3748 | COC(=O)Cc1ccc(C(C)(C)C)cc1 [Methyl p-tert-butylphenylacetate] | 
 |  |  |  | C=CC1=C(C)c2cc3[n-]c(cc4nc(cc5[n-]c(cc1n2)c(C)c5C=C)C(C)=C4CCC(=O)O)c(CCC(=O)O)c3C.[Cl-].[Fe+3] [Hemin] | 1-D Distance.npi [6]: 76.0753; 1-D Distance [7]: 1716; Raw data [w Enyzm] (sheet HTS hits): 4406; Raw data [w/o Enzym] (sheet HTS hits): 6122
 | 5823 | 7545 |  | CC(=O)[C@]1(O)Cc2c(O)c3c(c(O)c2[C@@H](O[C@H]2C[C@H](N)[C@H](O)[C@H](C)O2)C1)C(=O)c1ccccc1C3=O.Cl [Idarubicin (hydrochloride)] | 1-D Distance.npi [4]: 74.8199; 1-D Distance [5]: 1722
 | 9137 | 11028 |  | O=c1[nH]c(=O)c2ccccc2[nH]1 [Benzoyleneurea] | 1-D Distance.npi [4]: 70.2932; 1-D Distance [5]: 1891
1421 | 8755 | 10176 | 74.4696 | Lactoferrin (17-41) (acetate) (TKCFQWQRNMRKVRGPPVSCIKRDS; ends and bridges not checked; also: acetate salt; UniProt P02788 36-60, looked up, fragment) | 
 |  |  |  | CC(=O)O[C@H]1C[C@@]2(C)[C@@H](C[C@@H](O)[C@H]3[C@@]4(C)CC[C@@H](O)[C@@H](C)[C@@H]4CC[C@@]32C)/C1=C(\CCC=C(C)C)C(=O)[O-].[Na+] [Fusidic acid (sodium salt)] | 1-D Distance.npi [6]: 75.4657; 1-D Distance [7]: 1636; Raw data [w Enyzm] (sheet HTS hits): 9299; Raw data [w/o Enzym] (sheet HTS hits): 10935
482 | 7973 | 8455 | 97.3447 | NC[C@@H]1O[C@H](O[C@H]2[C@@H](O)[C@H](O[C@@H]3[C@@H](O)[C@H](N)C[C@H](N)[C@H]3O[C@H]3O[C@H](CN)[C@@H](O)[C@H](O)[C@H]3N)O[C@@H]2CO)[C@H](N)[C@@H](O)[C@@H]1O.O=S(=O)(O)O [Neomycin (sulfate)] | 
 |  |  |  | C/C1=C2/[N-][C@H]([C@H](CC(N)=O)[C@@]2(C)CCC(=O)NC[C@H](C)OP(=O)([O-])O[C@H]2[C@@H](O)[C@@H](n3cnc4cc(C)c(C)cc43)O[C@@H]2CO)[C@]2(C)N=C(/C(C)=C3N=C(/C=C4N=C1[C@@H](CCC(N)=O)C\4(C)C)[C@@H](CCC(N)=O)[C@]\3(C)CC(N)=O)[C@@H](CCC(N)=O)[C@]2(C)CC(N)=O.[CH3-].[Co+3] [Methylcobalamin] | 1-D Distance.npi [6]: 89.4559; 1-D Distance [7]: 977; Raw data [w Enyzm] (sheet HTS hits): 4140; Raw data [w/o Enzym] (sheet HTS hits): 5117
1374 | 2360 | 3734 | 80.0753 | COc1cccc2c1C(=N)c1c(O)c3c(c(O)c1C2=O)C[C@@](O)(C(C)=O)C[C@@H]3O[C@H]1C[C@H](N)[C@H](O)[C@H](C)O1 [5-Iminodaunorubicin] | 
 |  |  |  | O=C(O)CCCN1CCC(O[C@@H](c2ccc(Cl)cc2)c2ccccn2)CC1.O=S(=O)(O)c1ccccc1 [Bepotastine (besilate)] | 1-D Distance.npi [6]: 70.3956; 1-D Distance [7]: 1900; Raw data [w Enyzm] (sheet HTS hits): 8762; Raw data [w/o Enzym] (sheet HTS hits): 10662
 | 9369 | 11071 |  | c1cnc(N2CCN(Cc3ccc4c(c3)OCO4)CC2)nc1 [Piribedil] | 1-D Distance [5]: 1702
797 | 8276 | 9073 |  | CC(=O)Nc1cc(Oc2ccc3c(C(=O)Nc4ccc(CN5CCN(C)CC5)c(C(F)(F)F)c4)cccc3c2)ncn1 [BGG463] | 1-D Distance.npi [2]: 93.5609
1220 | 8444 | 9664 | 82.0351 | NC[C@@H]1O[C@H](O[C@H]2[C@@H](O)[C@H](O[C@@H]3[C@@H](O)[C@H](N)C[C@H](N)[C@H]3O[C@H]3O[C@H](CO)[C@@H](O)[C@H](O)[C@H]3N)O[C@@H]2CO)[C@H](N)[C@@H](O)[C@@H]1O.O=S(=O)(O)O [Paromomycin (sulfate)] | 
 |  |  |  | Cc1ncsc1-c1ccc(CNC(=O)[C@@H]2C[C@@H](O)CN2C(=O)[C@@H](NC(=O)CCN)C(C)(C)C)cc1.Cl.Cl [(S,R,S)-AHPC-C2-NH2 (dihydrochloride)] | 1-D Distance.npi [6]: 76.891; 1-D Distance [7]: 1672; Raw data [w Enyzm] (sheet HTS hits): 9239; Raw data [w/o Enzym] (sheet HTS hits): 10911
 | 12110 | 13337 |  | O=C(O)c1ccc(-c2ccc(N(c3ccc(-c4ccc(C(=O)O)cc4)cc3)c3ccc(-c4ccc(C(=O)O)cc4)cc3)cc2)cc1 [Antibacterial agent 18] | 1-D Distance.npi [4]: 80.2581; 1-D Distance [5]: 1227
 | 4827 | 6279 |  | C/C1=C2/[N-]C([C@H](CC(N)=O)[C@@]2(C)CCC(=O)NC[C@@H](C)OP(=O)([O-])O[C@H]2[C@@H](O)[C@@H](n3cnc4cc(C)c(C)cc43)O[C@@H]2CO)[C@]2(C)N=C(/C(C)=C3N=C(/C=C4N=C1[C@@H](CCC(N)=O)C\4(C)C)[C@@H](CCC(N)=O)[C@]\3(C)CC(N)=O)[C@@H](CCC(N)=O)[C@]2(C)CC(N)=O.CC(=O)[O-].[Co+3] [Hydroxocobalamin (acetate)] | 1-D Distance.npi [4]: 78.9236; 1-D Distance [5]: 1452
 |  |  |  | COc1cc(S(=O)(=O)[O-])ccc1O.[K+] [Sulfogaiacol] | 1-D Distance.npi [6]: 81.4409; 1-D Distance [7]: 1427; Raw data [w Enyzm] (sheet HTS hits): 8908; Raw data [w/o Enzym] (sheet HTS hits): 10335

Compound | 1-D Distance [1] | Raw data [w Enyzm] (HTS hits) | Raw data [w/o Enzym] (HTS hits) | 1-D Distance.npi [3] | also measured
COc1c2c3c4c(c(OC)c(=O)c5c(O)cc(OC)c(c6c(OC)cc(O)c(c1=O)c63)c54)[C@@H](C(C)=O)[C@@](C)(O)C2 [Hypocrellin A] | 1179 | 1866 | 3045 |  | 
CCC(O)C(=O)[O-].[Na+] (stereo not drawn) [Sodium 2-hydroxybutanoate] | 1888 | 8789 | 10677 | 73.0807 | 
Cl.Cl.Cn1cc(NC(=O)c2cc(NC(=O)CN=C(N)N)cn2C)cc1C(=O)NCCC(=N)N [Netropsin (dihydrochloride)] | 1774 | 8749 |  | 75.4127 | 
C/C=C/c1cc(OC)c(OC)cc1OC [alpha-Asarone] | 1762 | 8891 | 10653 | 73.1231 | 
O.O=C1C=CC[C@@H]2[C@H]3CCCN4CCC[C@@H](CN12)[C@@H]34 [Sophocarpine (monohydrate)] | 1834 | 8885 | 10719 | 71.833 | 
Cn1ncnc2c(=O)n(C)c(=O)nc1-2 [Toxoflavin] | 1019 | 16186 | 17205 |  | 1-D Distance.npi [2]: 89.8188
